Assay results reported in patent publication US20050176746A1, “Use of compounds that are effective as selective opiate receptor modulators” (priority 2002, published 2005).

Key:
healthy subjects = assay: Satiety test (nutrient drink; maximum volume ingested and postprandial symptoms), Phase I study, 7-day treatment; assay type: in vivo, human
Text: (§1) A a single center, randomized, double-blind, placebo controlled, parallel group Phase I study has been performed. The trial evaluates the effects of a 7-day treatment with 2 different doses of the peripherally selective opiate receptor modulator asimadoline (N-methyl-N-[(1S)-1-phenyl-2-((3S)-3-hydroxypyrrolidin-1-yl)ethyl]-2,2-diphenylacetamide hydrochloride, EMD 61 753) on gastrointestinal and colonic transit and sensorimotor functions in healthy subjects in comparison to placebo.
All subjects have undergone a satiety test prior to and under medication, a scintigraphic gastric and colonic transit test, and, after overnight bowel preparation, a barostat test assessing colonic compliance and colonic sensation prior to and under medication, and fasting colonic tone and colonic response to a standardized meal under medication.
Specific aims of this study have been the comparison of the effects of 7 day treatment with placebo and three doses of asimadoline as described above on: • satiety after ingestion of a nutrient drink • colonic aggregate sensation score in response to distension in healthy subjects • thresholds for colonic sensation of gas and pain in response to distension in healthy subjects • fasting colonic compliance and tone • postprandial tonic response to standard meal ingestion
(§2) A further aim of the study was to compare the gastrointestinal and colonic transit profiles during the 7-day treatment. The studies on lower dosage (0.15 mg/kg and 0.5 mg/kg versus placebo) were performed separately as Part A and the studies on higher dosage (1.5 mg/kg versus placebo) were performed separately as Part B of the studies (see FIGS. 1 to 4).
The primary endpoint in the satiety test is difference to baseline in the aggregate satiety score 30 min after full satiety.
The analysis of primary motility endpoints (gastric residual percent at 2 hrs, colonic filling (CF) percent at 6 hrs. and colonic geometric center at 24 hrs)and the maximum satiety volume (at day 5) is based on one-way analysis of variance or analysis of covariance methods. The proportions (GE at 2 hrs and CF at 6 hrs)may warrant transformation (e.g., sin^−1{square root}) prior to analysis to stabilize variation across treatment groups. Analysis of the satiety volumes incorporates the baseline value as a covariate in addition to BMI; or alternatively, the relative changes (log [day 5 volume/baseline volume]) are analyzed with BMI as a covariate.

[1] = tested on: colon of healthy subjects; assay: Barostat test (intubated colonic procedure: fasting colonic volume, sensation and pain to distension), Phase I study, 7-day treatment; assay type: in vivo, human; set-up: key to sensation to distension (VAS score) / pain to distension (VAS score): 100 mm visual analog scale
Text: as §1, §2
All subjects are presented to the General Clinical Research Center at Charlton 7, General Clinical Research Center, on visit 3 after overnight bowel preparation with the oral colonic lavage solution (2-5 L of polyethylene glycol 3350 and electrolyte solution, NuLytely™, Abbott Laboratories, Chicago. IL), and a 12-hour fast.
Flexible colonoscopy is performed to evaluate the left side of the colon and to place a teflon guidewire into the proximal colon under fluoroscopic control. The endoscope is withdrawn.
A barostat catheter is inserted into the colon along the guidewire so that the barostat balloon is located in the upper sigmoid or descending colon. The catheter is connected to a barostat machine using an infinitely compliant 10-cm long balloon with a maximum volume of 600 cc (Hefty Baggies, Mobil Chemical Co., Pittsford, N.Y.) linked to an electronic barostat (Mayo rigid barostat, Mayo Foundation Engineering Department, Rochester, Minn.) which has a rigid piston. The manometric portion comprises six waterperfused (0.4 ml/min) pneumohydraulic sensors, three in the descending colon (sensor numbers 1-3) and three in the sigmoid colon (sensor numbers 4-6). The manometric sensors are 5 cm apart, while the first and second sensors are 5 cm oral and caudal to the balloon respectively. To decrease the effects of abdominal viscera on the balloon volume, the studies are performed with the subjects in a semi-prone position during the entire duration of the study.
Previous studies have shown that an initial “conditioning” distension to 20 mmHg renders subsequent assessments of compliance and perception more reproducible [15. 47. 48]. Following the conditioning distension, colonic compliance and sensory thresholds are measured by ramp inflation with increments of 4 mmHg, o steps at 30 second intervals from 0 to 44 mmHg; thresholds for first sensation and sensation of pain are thus determined using the ascending method of limits.
Immediately prior to assessment of colonic sensation, four 100 mm visual analog scales (VAS) scales using the anchor points “tired-energetic”, “peaceful-tense” and “worried-relaxed” and “active-drowsy” are used to determine the level of arousal, anxiety or stress being experienced by the subject. […] Subsequently, randomized-order phasic distensions at 8, 16, 24, and 32 mm Hg above operating pressure are applied to measure the sensations of gas or pain.
For rating sensory perception, the participants are asked to mark two separate VAS for abdominal pain and feeling of gas at a standardized time, 20 seconds after the distension had commenced. The VAS are anchored at the ends by the descriptions “unnoticeable” and “unbearable”. During assessment of sensation, verbal interaction between the subject and investigator is minimized.
Colonic sensation is assessed before and 1 h after drug administration during the measurement of colonic compliance. This is equivalent to finding the threshold pressures or the initial perception and pain perception during sequential pressure increments using the ascending method of limits.
The participant is allowed to rest for 15 minutes. […]

In the case of `CN(C(=O)C(c1ccccc1)c1ccccc1)[C@H](CN1CC[C@H](O)C1)c1ccccc1.Cl` [asimadoline, N-methyl-N-[(1S)-1-phenyl-2-((3S)-3-hydroxypyrrolidin-1-yl)ethyl]-2,2-diphenylacetamide hydrochloride], the “maximum ingested volume versus placebo (in words)” value (healthy subjects; 0.15 mg/kg) is reported as “increase the maximum ingested volume slightly versus placebo”, the “aggregate postprandial symptoms (VAS score)” value (healthy subjects; 0.15 mg/kg, Part A (placebo 180)) is reported as 187 and the “maximum volume ingested (satiety test)” value (healthy subjects; 0.15 mg/kg, study Part A (placebo 1280 ml)) is reported as 1425 mL. For the same compound, the “maximum ingested volume versus placebo (in words)” value (healthy subjects; 0.5 mg/kg) was “increase the maximum ingested volume significantly versus placebo”, the “aggregate postprandial symptoms (VAS score)” value (healthy subjects; 0.5 mg/kg, Part A (placebo 180)) was 170 and the “maximum volume ingested (satiety test)” value (healthy subjects; 0.5 mg/kg, study Part A (placebo 1280 ml)) was 1470 mL. For the same compound, the “postprandial symptoms with higher ingested volume (in words)” value (healthy subjects; 1.5 mg/kg) was “symptoms increased with increased volume ingested”, the “aggregate postprandial symptoms (VAS score)” value (healthy subjects; 1.5 mg/kg, Part B (placebo 162)) was 192 and the “maximum volume ingested (satiety test)” value (healthy subjects; 1.5 mg/kg, study Part B (placebo 1300 ml)) was 1390 mL. The “postprandial symptoms with higher ingested volume (in words)” value (healthy subjects; dosis in the range of 0.5 mg/kg) was “not associated with an increase in symptoms”, the “maximum ingested volume, dose dependency (in words)” value (healthy subjects; higher concentration (1.5 mg/kg)) was “ceiling effect established” and the “maximum ingested volume, dose dependency (in words)” value (healthy subjects; lower end of the dosis range (0.15 mg/kg)) was “dose response effect established”. The “fasting volume of the colon at 0 mm pressure” value (from here on “fasting volume of the colon”) ([1]; 0.15 mg/kg, Part A (placebo 1 ml)) was 8 mL, the “fasting volume versus placebo (in words)” value ([1]; 0.5 mg/kg) was “significantly higher” and the “fasting volume of the colon” value ([1]; 0.5 mg/kg, Part A (placebo 1 ml)) was 21 mL. The “perception of distension (in words)” value ([1]; 0.5 mg/kg, low pressure (8 mm Hg), effect decreases by increasing pressure) was “significantly reduced”, the “fasting volume of the colon” value ([1]; 1.5 mg/kg, Part B (placebo 6 ml)) was 24 mL and the “pain to distension (VAS score)” value ([1]; 8 mm Hg, 0.15 mg/kg, Part A (placebo 22)) was 25. For the same compound, the “sensation to distension (VAS score)” value ([1]; 8 mm Hg, 0.15 mg/kg, Part A (placebo 37)) was 38, the “pain to distension (VAS score)” value ([1]; 8 mm Hg, 0.5 mg/kg, Part A (placebo 22)) was 18 and the “sensation to distension (VAS score)” value ([1]; 8 mm Hg, 0.5 mg/kg, Part A (placebo 37)) was 26. The “pain to distension (VAS score)” value ([1]; 8 mm Hg, 1.5 mg/kg, Part B (placebo 14)) was 30, the “sensation to distension (VAS score)” value ([1]; 8 mm Hg, 1.5 mg/kg, Part B (placebo 20)) was 31 and the “pain to distension (VAS score)” value ([1]; 16 mm Hg, 0.15 mg/kg, Part A (placebo 33)) was 28. The “sensation to distension (VAS score)” value ([1]; 16 mm Hg, 0.15 mg/kg, Part A (placebo 43)) was 37, the “pain to distension (VAS score)” value ([1]; 16 mm Hg, 0.5 mg/kg, Part A (placebo 33)) was 28 and the “sensation to distension (VAS score)” value ([1]; 16 mm Hg, 0.5 mg/kg, Part A (placebo 43)) was 37. The “pain to distension (VAS score)” value ([1]; 16 mm Hg, 1.5 mg/kg, Part B (placebo 21)) was 37, the “sensation to distension (VAS score)” value ([1]; 16 mm Hg, 1.5 mg/kg, Part B (placebo 23)) was 38 and the “pain to distension (VAS score)” value ([1]; 24 mm Hg, 0.15 mg/kg, Part A (placebo 38)) was 30. The “sensation to distension (VAS score)” value ([1]; 24 mm Hg, 0.15 mg/kg, Part A (placebo 43)) was 45, the “pain to distension (VAS score)” value ([1]; 24 mm Hg, 0.5 mg/kg, Part A (placebo 38)) was 32 and the “sensation to distension (VAS score)” value ([1]; 24 mm Hg, 0.5 mg/kg, Part A (placebo 43)) was 41. The “pain to distension (VAS score)” value ([1]; 24 mm Hg, 1.5 mg/kg, Part B (placebo 30)) was 40, the “sensation to distension (VAS score)” value ([1]; 24 mm Hg, 1.5 mg/kg, Part B (placebo 42)) was 41 and the “pain to distension (VAS score)” value ([1]; 32 mm Hg, 0.15 mg/kg, Part A (placebo 48)) was 42. For the same compound, the “sensation to distension (VAS score)” value ([1]; 32 mm Hg, 0.15 mg/kg, Part A (placebo 54)) was 53, the “pain to distension (VAS score)” value ([1]; 32 mm Hg, 0.5 mg/kg, Part A (placebo 48)) was 38 and the “sensation to distension (VAS score)” value ([1]; 32 mm Hg, 0.5 mg/kg, Part A (placebo 54)) was 47. The “pain to distension (VAS score)” value ([1]; 32 mm Hg, 1.5 mg/kg, Part B (placebo 43)) was 47, the “sensation to distension (VAS score)” value ([1]; 32 mm Hg, 1.5 mg/kg, Part B (placebo 51)) was 43 and the “perception of pain (in words)” value ([1]; Barostat test, no dose stated) was “no significant reduction in the perception of pain could be observed”. For the same compound, the “scores for pain and sensation versus placebo (in words)” value ([1]; higher doses (1.5 mg/kg)) was “significantly higher scores for pain and sensation were observed versus placebo”.
